The source of these data is ChEMBL document CHEMBL5226302, “Small-Molecule Inhibitors Targeting the Canonical WNT Signaling Pathway for the Treatment of Cancer” (J Med Chem, 2021).

As usually defined, the half-life is how long it takes for the measured level to halve. High values mean slow loss, low ones fast loss. A word on the GI50: it is the concentration that inhibits growth by half. What is called IC50 is the concentration needed to halve the response being measured. The Kd is the concentration at which binding is half-saturated. By bioavailability is commonly meant dose-corrected exposure relative to a reference, in per cent. Low values mean little systemic uptake, high ones much systemic uptake.

Data set [1] is described as follows: Half life in mouse plasma. It counts as ADME, cell-free.
Data set [2] has as its system COLO 320. As to the kind of experiment: Antiproliferative activity against human COLO 320 assessed as growth inhibition measured after 24 hrs. In kind it is functional.
Data set [3] concerns the target T1, Catenin beta-1 (Homo sapiens, UniProt P35222).
T1 sequence (P35222 whole entry): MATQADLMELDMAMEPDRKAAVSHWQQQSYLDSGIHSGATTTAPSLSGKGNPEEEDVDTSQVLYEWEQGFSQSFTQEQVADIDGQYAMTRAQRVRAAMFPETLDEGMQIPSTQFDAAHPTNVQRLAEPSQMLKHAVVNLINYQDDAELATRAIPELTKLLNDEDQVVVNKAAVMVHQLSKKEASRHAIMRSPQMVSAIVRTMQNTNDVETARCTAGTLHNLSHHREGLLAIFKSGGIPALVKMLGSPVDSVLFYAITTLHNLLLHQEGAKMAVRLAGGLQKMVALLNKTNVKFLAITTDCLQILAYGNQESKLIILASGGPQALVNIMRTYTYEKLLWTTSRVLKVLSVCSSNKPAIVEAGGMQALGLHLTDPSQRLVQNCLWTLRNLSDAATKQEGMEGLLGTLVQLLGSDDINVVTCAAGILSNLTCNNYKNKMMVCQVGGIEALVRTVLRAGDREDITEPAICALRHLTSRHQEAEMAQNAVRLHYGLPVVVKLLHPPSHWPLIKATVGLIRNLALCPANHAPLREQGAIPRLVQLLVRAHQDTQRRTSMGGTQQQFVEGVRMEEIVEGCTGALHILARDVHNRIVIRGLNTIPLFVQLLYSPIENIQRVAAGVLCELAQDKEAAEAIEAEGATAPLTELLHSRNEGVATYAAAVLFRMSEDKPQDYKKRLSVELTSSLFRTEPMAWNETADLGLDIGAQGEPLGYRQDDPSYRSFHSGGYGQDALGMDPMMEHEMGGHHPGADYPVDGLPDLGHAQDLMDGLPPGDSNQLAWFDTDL

The nature of data set [4]: Inhibition of Wnt2 signalling in human SW480 cells assessed as reduction in cyclin D1 expression […] measured after 24 hrs by western blot analysis. It counts as cell-based. Conditions: SW480, 24 h. For orientation: A western blot detects proteins with antibodies after separation by electrophoresis.
Data set [5] in a line: Inhibition of beta catenin/APC (unknown origin). Also on record: species or system Homo sapiens.
Data set [6] addresses T1, Catenin beta-1. As to the kind of experiment: Binding affinity to human beta catenin assessed as dissociation constant.
For data set [7], the target named is T2, Poly [ADP-ribose] polymerase tankyrase-2 (Homo sapiens, UniProt Q9H2K2).
T2 sequence (Q9H2K2 whole entry): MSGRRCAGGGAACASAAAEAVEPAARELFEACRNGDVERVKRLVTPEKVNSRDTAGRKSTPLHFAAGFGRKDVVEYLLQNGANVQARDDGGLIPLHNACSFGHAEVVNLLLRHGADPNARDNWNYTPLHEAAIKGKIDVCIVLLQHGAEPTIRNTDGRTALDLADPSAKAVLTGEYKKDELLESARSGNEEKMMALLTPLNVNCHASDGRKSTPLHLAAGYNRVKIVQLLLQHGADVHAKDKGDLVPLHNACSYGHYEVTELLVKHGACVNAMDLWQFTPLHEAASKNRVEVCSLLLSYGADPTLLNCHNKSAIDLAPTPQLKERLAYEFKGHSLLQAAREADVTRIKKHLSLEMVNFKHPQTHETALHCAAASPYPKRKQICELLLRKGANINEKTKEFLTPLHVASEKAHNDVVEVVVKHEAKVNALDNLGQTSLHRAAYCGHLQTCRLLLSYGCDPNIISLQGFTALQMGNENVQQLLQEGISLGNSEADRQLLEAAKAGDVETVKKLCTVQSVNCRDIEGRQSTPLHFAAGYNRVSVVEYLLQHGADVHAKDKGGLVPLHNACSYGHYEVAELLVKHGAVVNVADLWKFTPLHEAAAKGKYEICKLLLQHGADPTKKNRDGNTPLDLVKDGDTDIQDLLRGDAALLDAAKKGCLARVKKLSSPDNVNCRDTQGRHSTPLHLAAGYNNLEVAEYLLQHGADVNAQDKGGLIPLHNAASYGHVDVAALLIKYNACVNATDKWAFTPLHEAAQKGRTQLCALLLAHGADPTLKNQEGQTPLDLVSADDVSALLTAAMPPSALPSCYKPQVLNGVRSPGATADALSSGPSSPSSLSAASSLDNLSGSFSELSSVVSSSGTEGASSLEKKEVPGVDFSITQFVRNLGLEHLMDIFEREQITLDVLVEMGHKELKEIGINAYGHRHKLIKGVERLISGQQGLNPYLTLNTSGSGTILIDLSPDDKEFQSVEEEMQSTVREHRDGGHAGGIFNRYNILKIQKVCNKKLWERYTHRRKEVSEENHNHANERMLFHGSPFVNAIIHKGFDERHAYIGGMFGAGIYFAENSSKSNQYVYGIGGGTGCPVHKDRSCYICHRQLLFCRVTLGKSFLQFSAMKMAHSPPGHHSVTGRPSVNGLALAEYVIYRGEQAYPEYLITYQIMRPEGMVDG
As to the kind of experiment: Inhibition of TNKS2 (unknown origin).

The test system of the next data set is DLD-1. The data set can be described thus: Antiproliferative activity against human DLD-1 cells assessed as reduction in cell viability by cell proliferation assay. It counts as functional, cell-based.
The target of data set [8] is Catenin beta-1 (Homo sapiens, UniProt P35222). The data set can be described thus: Binding affinity to human beta catenin double mutant assessed as dissociation constant by alpha assay.
Data set [9] has as its target T1, Catenin beta-1. As to the kind of experiment: Binding affinity to beta catenin (unknown origin) assessed as dissociation constant by VP-ITC method. A general note: Isothermal titration calorimetry measures the heat released or taken up as one component is titrated into another.
A short description of data set [10]: Oral bioavailability in rat at 30 mg/kg. It counts as ADME, organism-based. Conditions: in vivo.
The test system of data set [11] is COLO 320. As to the kind of experiment: Antitumor activity against human COLO 320 cells xenografted mouse model assessed as tumor growth inhibition at 300 mg/kg relative to control. The settings on record: read-out: TGI. In kind it is functional. On the technique in general: Xenograft models place foreign cells or tissue in a host animal.

Structures are written as SMILES.

Compound `CC1(C)OC(=O)N(c2ccc(C(=O)Nc3cccc4cccnc34)cc2)[C@H]1c1ccccc1` came in with a half-life in data set [1] of 5.2 h. As to `C[C@@H]1CN(c2cc(F)c3c(c2)N(C)C(=O)C32CCN(c3nc4c(c(=O)[nH]3)CCCN4C)CC2)C[C@H](C)O1`, the GI50 in the data set on COLO 320 [2] worked out at 230 nM. As to `On1ncc2cc(CCc3nn[nH]n3)ccc21`, 500 nM corresponded to half-maximal inhibition against Catenin beta-1 [3] (IC50). Take `CCOC(=O)CC[C@H](NC(=O)[C@H](CC(=O)OCC)NC(=O)[C@H](Cc1ccc2ccccc2c1)NC(=O)Cc1cc2cc(Cl)ccc2[nH]1)C(=O)OC`: the IC50 turned out to be 10800 nM in data set [4] and 28700 nM in data set [5]. Regarding `CC(=O)N[C@@H](CCC(=O)O)CN(CC(=O)N[C@@H](CCCNC(=N)N)CN(CC(=O)N[C@@H](CCCNC(=N)N)CN(CC(=O)NC(CC(C)C)CN(CC(=O)N[C@H](CN(CC(=O)N[C@@H](CC(C)C)CN(CC(=O)N[C@@H](CCCNC(=N)N)CN(CC(=O)N[C@@H](C)CN(CC(=O)N[C@@H](CC(C)C)CN(CC(=O)N[C@@H](CC(C)C)CN(CC(N)=O)SCc1ccccc1)S(=O)(=O)CC(C)C)S(C)(=O)=O)S(=O)(=O)CC(C)C)S(=O)(=O)CCN)S(=O)(=O)CC(C)C)C(C)O)S(=O)(=O)CCN)S(C)(=O)=O)S(C)(=O)=O)S(=O)(=O)CCN` (some centres not stated), the Kd on Catenin beta-1 [6] came to 160 nM. In the case of `CC1(C)OC(=O)N([C@H]2CC[C@H](c3cnc(N)c(-c4ncccn4)c3)CC2)[C@H]1c1ccccc1`, the results for the IC50 (in [7]; in the data set on DLD-1) were 22 nM and 3000 nM, respectively. As for `O=C(Nc1ccc(-c2ccc(F)cc2)c(O[C@H]2CCNC2)c1)c1ccc(O[C@H]2CCNC2)c(-c2ccc(F)c(F)c2)c1`, the Kd on Catenin beta-1 [8] was 97 nM. In the case of `CC[C@H](C)[C@H]1NC(=O)[C@](C)(NC(=O)[C@H](CCC(N)=O)NC(=O)[C@@H]2CCCN2C(=O)[C@H](CC(N)=O)NC(=O)[C@H](CCC(=O)O)NC(=O)CCNC(=S)Nc2ccc3c(c2)C(=O)OC32c3ccc(O)cc3Oc3cc(O)ccc32)CCC/C=C/CCC[C@](C)(C(=O)N[C@@H](Cc2cnc[nH]2)C(=O)N[C@H](C(=O)N[C@@H](CCC(N)=O)C(=O)N[C@@H](CCCNC(=N)N)C(=O)N[C@H](C(=O)N[C@@H](CCSC)C(N)=O)C(C)C)C(C)C)NC(=O)[C@H](CC(=O)O)NC(=O)[C@H](C(C)(C)C)NC1=O`, the Kd on Catenin beta-1 [9] turned out to be 60 nM. `O=c1[nH]c(N2CCC3(CC2)CN(CCO)c2cc(F)cc(F)c23)nc2c1CCCC2`: the bioavailability in data set [10] worked out at 60%. In the data set with COLO 320 [11], the inhibition in vivo at 300 mg/kg was determined as 52%.
